ChEMBL document CHEMBL5126602, “Polo-like Kinase 1 Inhibitors in Human Cancer Therapy: Development and Therapeutic Potential” (J Med Chem, 2022)
Blank lines part the entries; values can stand above or below the compound they belong to. Numbered stars: 1 amine (or outer) side, 2 acyl side, 3 side chain; on linkers, the order of the positions; unused ones are H or OH. Square brackets hold non-standard residues; d marks the D form. Peptide text beside a SMILES is read from it. X1 = O=C([C@H](Cc1cncn1CCCCc1cn(Cc2ccc(Oc3ccccc3)cc2F)nn1)N[*:1])[*:2]; pT = C[C@@H](OP(=O)(O)O)[C@H](N)C(=O)O

Experiments:
[1] = Half-life in rat liver microsomes; format: ADME, Microsome
[2] = Solubility of the compound; format: physicochemical
[3] = molecular target: T1, Serine/threonine-protein kinase PLK1 (Homo sapiens, UniProt P53350); assay: Inhibition of biotinylated p-T78 peptide binding to human HA-EGFP-PLK1 expressed in HEK293-A cells using TMB as substrate incubated for 1 hrs by ELISA plate reader based analysis
[4] = molecular target: T2, Serine/threonine-protein kinase PLK2 (Homo sapiens, UniProt Q9NYY3); assay: Inhibition of Myc-tagged PLK2 PBD (unknown origin) expressed in HEK293T cells using 5CF-GPMQTSpTPKNG-NH2 as substrate preincubated for 30 mins followed by substrate addition and measured after 30 mins by fluorescence polarization assay
[5] = molecular target: T1, Serine/threonine-protein kinase PLK1; assay: Inhibition of PLK1 in thymidine synchronized human HeLa cells using casein as substrate preincubated with compound for 13 hrs followed by substrate addition and measured after 12 to 36 hrs in the presence of [gamma33P]ATP by autoradiography based Western blot analysis; format: cell-based
[6] = test system: MCF7; assay: Antiproliferative activity against human MCF7 cells assessed as reduction in cell proliferation incubated for 72 hrs; format: functional, cell-based; conditions: MCF7, 72 h
[7] = test system: A-431; assay: Antiproliferative activity against human A-431 cells assessed as reduction in cell proliferation incubated for 72 hrs; format: functional, cell-based; conditions: A-431, 72 h
[8] = test system: SK-OV-3; assay: Antiproliferative activity against human SK-OV-3 cells assessed as reduction in cell viability incubated for 72 hrs; format: functional, cell-based; conditions: SK-OV-3, 72 h
[9] = test system: HCT-15; assay: Antiproliferative activity against human HCT-15 cells assessed as reduction in cell viability incubated for 72 hrs; format: functional, cell-based; conditions: HCT-15, 72 h
[10] = test system: U2OS; assay: Antiproliferative activity against human U2OS cells assessed as reduction in cell viability incubated for 72 hrs; format: functional, cell-based
[11] = test system: A549; assay: Antiproliferative activity against human A549 cells assessed as reduction in cell viability incubated for 72 hrs; format: functional, cell-based; conditions: A549, 72 h
[12] = test system: HT-29; assay: Antiproliferative activity against human HT-29 cells assessed as reduction in cell viability incubated for 72 hrs; format: functional, cell-based; conditions: HT-29, 72 h
[13] = test system: PC-3; assay: Antiproliferative activity against human PC-3 cells assessed as reduction in cell viability incubated for 72 hrs; format: functional, cell-based; conditions: PC-3, 72 h
[14] = test system: LN-229; assay: Antiproliferative activity against human LN-229 cells assessed as reduction in cell viability incubated for 72 hrs; format: functional, cell-based; conditions: LN-229, 72 h
[15] = test system: SKW 6.4; assay: Antiproliferative activity against human SKW 6.4 cells assessed as reduction in cell viability incubated for 72 hrs; format: functional, cell-based; conditions: SKW 6.4, 72 h
[16] = test system: Detroit 562; assay: Antiproliferative activity against human Detroit 562 cells assessed as reduction in cell viability incubated for 72 hrs; format: functional, cell-based; conditions: Detroit 562, 72 h
[17] = molecular target: T2, Serine/threonine-protein kinase PLK2; assay: Inhibition of 5-carboxyfluorescein-GPMQTSpTPKNG-OH peptide binding to C-terminal 6His-tagged human PLK2 (355 to 685 residues) PBD expressed in Rosetta BL21 (DE3) cells preincubated for 1 hrs with compound followed by peptide addition and measured immediately by fluorescence polarization assay
[18] = molecular target: T1, Serine/threonine-protein kinase PLK1; assay: Inhibition of 5-carboxyfluoresceinGPMQSpTPLNG-OH peptide binding to N-terminal His7-tagged human PLK1 (326 to 603 residues) PBD expressed in Escherichia coli BL21 (DE3) cells preincubated for 1 hrs with compound followed by peptide addition and measured after 1 hrs by fluorescence polarization assay
[19] = molecular target: T2, Serine/threonine-protein kinase PLK2; assay: Inhibition of 5-carboxyfluorescein-GPMQTSpTPKNG-OH peptide binding to PLK2 (355 to 685 residues) PBD (unknown origin) preincubated for 1 hrs with compound followed by peptide addition and measured after 1 hrs by fluorescence polarization assay
[20] = molecular target: T3, Serine/threonine-protein kinase PLK3 (Homo sapiens, UniProt Q9H4B4); assay: Inhibition of 5-carboxyfluorescein-GPLATSpTPKNG-OH peptide binding to PLK3 (335 to 646 residues) PBD (unknown origin) at 100 uM preincubated for 1 hrs with compound followed by peptide addition and measured after 1 hrs by fluorescence polarization assay; conditions: time 2.0 hrs
Target sequence in this assay (Q9H4B4 whole entry, looked up, the tested form may be a part): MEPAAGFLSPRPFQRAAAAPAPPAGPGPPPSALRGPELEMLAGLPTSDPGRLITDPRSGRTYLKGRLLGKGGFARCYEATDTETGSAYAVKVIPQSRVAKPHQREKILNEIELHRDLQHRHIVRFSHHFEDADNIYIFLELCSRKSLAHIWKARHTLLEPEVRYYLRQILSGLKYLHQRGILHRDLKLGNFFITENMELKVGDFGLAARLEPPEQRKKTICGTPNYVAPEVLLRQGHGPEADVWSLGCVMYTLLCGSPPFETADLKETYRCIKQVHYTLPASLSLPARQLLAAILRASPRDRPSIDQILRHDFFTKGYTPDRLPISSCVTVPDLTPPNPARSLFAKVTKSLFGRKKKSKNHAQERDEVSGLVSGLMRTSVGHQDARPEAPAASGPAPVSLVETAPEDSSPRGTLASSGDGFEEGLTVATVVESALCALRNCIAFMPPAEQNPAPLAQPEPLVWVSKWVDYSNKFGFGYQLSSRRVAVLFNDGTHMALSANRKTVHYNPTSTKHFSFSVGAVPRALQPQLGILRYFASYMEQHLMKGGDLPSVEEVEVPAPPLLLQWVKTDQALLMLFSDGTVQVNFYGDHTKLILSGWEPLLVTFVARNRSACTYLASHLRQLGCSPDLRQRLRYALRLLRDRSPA

[21] = molecular target: T1, Serine/threonine-protein kinase PLK1; assay: Inhibition of biotin labelled PoloBoxtide binding to GST/His-fused full length PLK1 (unknown origin) expressed in baculovirus infected Sf9 cells
[22] = molecular target: T1, Serine/threonine-protein kinase PLK1; assay: Inhibition of 5-carboxyfluoresceinGPMQSpTPLNG-OH peptide binding to PLK1 (326 to 603 residues) PBD (unknown origin) preincubated for 1 hrs with compound followed by peptide addition and measured after 75 mins by fluorescence polarization assay
[23] = molecular target: T2, Serine/threonine-protein kinase PLK2; assay: Inhibition of 5-carboxyfluorescein-GPMQTSpTPKNG-OH peptide binding to PLK2 (355 to 685 residues) PBD (unknown origin) preincubated for 1 hrs with compound followed by peptide addition and measured after 75 min by fluorescence polarization assay
[24] = molecular target: T3, Serine/threonine-protein kinase PLK3; assay: Inhibition of 5-carboxyfluorescein-GPLATSpTPKNG-OH peptide binding to PLK3 (335 to 646 residues) PBD (unknown origin) at 100 uM preincubated for 1 hrs with compound followed by peptide addition and measured after 75 mins by fluorescence polarization assay; conditions: time 135.0 min
Target sequence in this assay (Q9H4B4 whole entry, looked up, the tested form may be a part): as above

[25] = test system: HeLa; assay: Antiproliferative activity against human HeLa cells assessed as inhibition of cell proliferation incubated for 24 hrs by BCA assay; format: functional, cell-based
[26] = molecular target: T1, Serine/threonine-protein kinase PLK1; assay: Inhibition of PLK1 PBD (unknown origin) dependent binding
[27] = molecular target: T1, Serine/threonine-protein kinase PLK1; assay: Inhibition of PLK1 (unknown origin) in the presence of ATP by ADP-Glo-kinase assay
[28] = molecular target: T2, Serine/threonine-protein kinase PLK2; assay: Inhibition of PLK2 (unknown origin) in the presence of ATP by ADP-Glo-kinase assay
[29] = molecular target: T3, Serine/threonine-protein kinase PLK3; assay: Inhibition of PLK3 (unknown origin) in the presence of ATP by ADP-Glo-kinase assay
Target sequence in this assay (Q9H4B4 whole entry, the tested form may be a part): as the sequence (Q9H4B4 whole entry, looked up, the tested form may be a part) above

[30] = molecular target: T1, Serine/threonine-protein kinase PLK1; assay: Inhibition of biotinylated PLHSpT peptide binding to n-terminal GST-tagged full length human PLK1 PBD preincubated with compound for 30 mins followed by peptide addition and measured after 1 hrs by time-resolved fluorescence energy transfer assay
[31] = test system: HeLa; assay: Antiproliferative activity against human HeLa cells assessed as inhibition of cell proliferation incubated for 72 hrs by MTT assay; format: functional, cell-based
[32] = molecular target: T1, Serine/threonine-protein kinase PLK1; assay: Inhibition of human PLK1 in the presence of ATP
[33] = molecular target: Serine/threonine-protein kinase PLK1 (Homo sapiens, UniProt P53350, T210D); assay: Inhibition of PLK1 T210D mutant kinase domain (unknown origin) using casein as substrate preincubated for 3 hrs followed by substrate addition and measured after 30 mins in the presence of ATP by ADP-Glo kinase assay
[34] = test system: MV4-11; assay: Antiproliferative activity against human MV4-11 cells assessed as inhibition of cell growth incubated for 24 hrs by CCK-8 assay; format: functional, cell-based; conditions: MV4-11, 24 h
[35] = molecular target: T1, Serine/threonine-protein kinase PLK1; assay: Inhibition of 5-carboxyfluoresceinGPMQSpTPLNG-OH peptide binding to human PLK1 (326 to 603 residues) PBD expressed in Rosetta BL21 (DE3) cells preincubated for 1 hrs with compound followed by peptide addition and measured immediately by fluorescence polarization assay
[36] = molecular target: T1, Serine/threonine-protein kinase PLK1; assay: Inhibition of 5-carboxyfluoresceinGPMQSpTPLNG-OH peptide binding to PLK1 (326 to 603 residues) PBD (unknown origin) preincubated for 1 hrs with compound followed by peptide addition and measured after 1 hrs by fluorescence polarization assay

T2 sequence (Q9NYY3 whole entry): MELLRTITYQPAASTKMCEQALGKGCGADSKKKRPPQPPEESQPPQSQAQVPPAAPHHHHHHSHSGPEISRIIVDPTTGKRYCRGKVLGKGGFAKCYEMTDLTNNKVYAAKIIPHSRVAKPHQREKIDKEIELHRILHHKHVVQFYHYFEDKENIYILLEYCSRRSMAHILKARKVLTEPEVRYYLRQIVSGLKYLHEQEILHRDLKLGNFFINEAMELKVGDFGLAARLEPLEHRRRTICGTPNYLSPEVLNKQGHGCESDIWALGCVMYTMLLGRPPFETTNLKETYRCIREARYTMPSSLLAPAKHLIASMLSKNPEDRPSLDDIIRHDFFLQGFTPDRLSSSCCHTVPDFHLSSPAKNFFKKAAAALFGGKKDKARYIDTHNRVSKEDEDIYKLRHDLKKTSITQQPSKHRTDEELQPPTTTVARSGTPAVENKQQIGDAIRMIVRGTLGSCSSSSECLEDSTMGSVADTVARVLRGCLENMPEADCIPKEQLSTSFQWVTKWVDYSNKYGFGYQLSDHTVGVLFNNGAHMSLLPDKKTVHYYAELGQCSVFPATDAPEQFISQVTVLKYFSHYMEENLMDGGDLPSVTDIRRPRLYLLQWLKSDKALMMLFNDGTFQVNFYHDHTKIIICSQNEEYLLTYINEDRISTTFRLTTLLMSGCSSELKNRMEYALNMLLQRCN
T1 sequence (P53350 whole entry): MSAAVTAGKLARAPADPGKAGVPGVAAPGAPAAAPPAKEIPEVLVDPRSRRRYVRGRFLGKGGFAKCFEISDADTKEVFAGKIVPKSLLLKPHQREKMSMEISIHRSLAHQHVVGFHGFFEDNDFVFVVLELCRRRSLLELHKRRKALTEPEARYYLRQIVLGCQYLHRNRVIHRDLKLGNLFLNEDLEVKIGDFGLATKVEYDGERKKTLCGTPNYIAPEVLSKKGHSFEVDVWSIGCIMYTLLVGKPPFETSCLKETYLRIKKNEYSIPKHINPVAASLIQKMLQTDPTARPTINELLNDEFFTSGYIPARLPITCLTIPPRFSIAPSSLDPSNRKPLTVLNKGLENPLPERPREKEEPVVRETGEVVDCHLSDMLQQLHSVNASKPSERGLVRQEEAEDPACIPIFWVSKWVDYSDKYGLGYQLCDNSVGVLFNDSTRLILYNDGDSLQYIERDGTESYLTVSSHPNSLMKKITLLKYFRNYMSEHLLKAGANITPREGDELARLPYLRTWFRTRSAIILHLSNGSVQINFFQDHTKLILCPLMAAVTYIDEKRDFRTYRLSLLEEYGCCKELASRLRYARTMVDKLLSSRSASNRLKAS
Serine/threonine-protein kinase PLK1 (Homo sapiens, UniProt P53350, T210D), sequence (P53350 2-603 T210D limits assumed): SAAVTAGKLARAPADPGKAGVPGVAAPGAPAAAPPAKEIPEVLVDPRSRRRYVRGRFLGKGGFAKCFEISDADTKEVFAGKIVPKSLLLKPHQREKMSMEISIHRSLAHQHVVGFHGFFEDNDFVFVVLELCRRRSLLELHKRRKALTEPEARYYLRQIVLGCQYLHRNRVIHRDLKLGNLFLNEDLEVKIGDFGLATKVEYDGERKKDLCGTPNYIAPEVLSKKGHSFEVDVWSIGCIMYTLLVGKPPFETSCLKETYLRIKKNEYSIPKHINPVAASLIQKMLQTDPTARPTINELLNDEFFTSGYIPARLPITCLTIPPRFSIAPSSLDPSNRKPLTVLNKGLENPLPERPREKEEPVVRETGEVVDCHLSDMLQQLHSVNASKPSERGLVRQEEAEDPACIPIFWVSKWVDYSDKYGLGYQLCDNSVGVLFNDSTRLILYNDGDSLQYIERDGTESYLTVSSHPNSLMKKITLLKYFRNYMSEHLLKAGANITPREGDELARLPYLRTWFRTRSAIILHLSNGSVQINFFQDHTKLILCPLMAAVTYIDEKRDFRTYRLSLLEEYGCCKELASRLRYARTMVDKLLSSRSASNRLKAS

Structure (SMILES): C[C@H](OP(=O)(O)O)[C@H](NC(=O)c1ccc2c(c1)nc(CCCCc1ccccc1)n2CCc1ccccc1)C(N)=O
IC50 [3]: 4.5 µM

Structure (SMILES): CC(=O)N1CCC[C@H]1C(=O)N[C@@H](CC(C)C)C(=O)N[C@@H](Cc1cncn1CCCCc1cn(Cc2ccc(Oc3ccccc3)cc2F)nn1)C(=O)N[C@@H](CO)C(=O)N[C@H](C(N)=O)[C@@H](C)OP(=O)(O)O (Ac-PL[X1]S[pT]-NH2)
IC50 [4]: 5.9 µM

Structure (SMILES): N#Cc1ccc(CC(=O)NCCCn2c(=O)c3cc(F)ccc3n3c(=S)[nH]nc23)cc1
half-life [1]: > 30 min | solubility [2]: > 60 µg/mL

Structure (SMILES): COc1ccc(CCNCc2ccc(OCc3ccc(Cl)nc3)c(OC)c2)cc1OC
EC50 [5]: 0.2 nM | EC50 [6]: 12 µM | EC50 [7]: 33 µM | EC50 [8]: 5 µM | EC50 [9]: 5 µM | EC50 [10]: 5 µM | EC50 [11]: 5 µM | EC50 [12]: 5 µM | EC50 [13]: 5 µM | EC50 [14]: 5 µM | EC50 [15]: 5 µM | EC50 [16]: 5 µM

Structure (SMILES): CC1=CC(=O)C(C(C)C)=C/C1=N/OC(=O)c1ccccc1C
IC50 [17]: 18.7 µM

Structure (SMILES): O=c1c2cc(F)ccc2n2c(=S)[nH]nc2n1CC1CC1
half-life [1]: > 30 min | solubility [2]: > 60 µg/mL

Structure (SMILES): Cc1ccc(NC(=S)NCCNc2nccc(C(F)(F)F)n2)c(C)c1
IC50 [21]: 1 µM

Structure (SMILES): CC1=C/C(=N/OC(=O)c2ccc(CNC(=O)CCc3cn(CCCCCCOCCOCCNC(=O)[C@H](C)CCC45CC6CC(CC(C6)C4)C5)nn3)cc2C)C(C)=CC1=O
IC50 [22]: 48.2 µM | IC50 [23]: 54.8 µM | inhibition [24]: 34% | IC50 [25]: 9.2 µM

Structure (SMILES): CCCCCCCCCC1=CO[C@]2(C[C@H](C(=O)O)[C@@](CC(=O)O)(C(=O)O)O2)C1=O
IC50 [26]: 128 µM

Structure (SMILES): O=c1c2cc(F)ccc2n2c(=S)[nH]nc2n1CCC(F)(F)F
half-life [1]: > 30 min | solubility [2]: > 60 µg/mL

Structure (SMILES): COc1c2c(cc3c1C(CC(=O)c1ccccn1)[N+](C)(C)CC3)OCO2 (stereo not drawn)
IC50 [30]: 2100 nM | IC50 [31]: 22.4 µM

Structure (SMILES): CC(=O)N1CCC[C@H]1C(=O)N[C@@H](CC(C)C)C(=O)N[C@@H](Cc1cn(CCCCCCCCc2ccccc2)nn1)C(=O)N[C@@H](CO)C(=O)N[C@H](C(N)=O)[C@@H](C)OP(=O)(O)O
IC50 [4]: 0.69 µM

Structure (SMILES): O=c1c2cc(F)ccc2n2c(=S)[nH]nc2n1CCc1ccncc1
half-life [1]: > 30 min | solubility [2]: > 60 µg/mL

Structure (SMILES): C=CCn1c(=O)c2cnc(Nc3ccc(N4CCN(C)CC4)cc3)nc2n1-c1cccc(C(C)(C)O)n1 [ADAVOSERTIB]
IC50 [32]: 15 nM

Structure (SMILES): CCCCCCCCCC1=CO[C@]2(C[C@H](C(=O)O)[C@@](CC(=O)O)(C(=O)OCCCC)O2)C1=O
IC50 [26]: 102 µM

Structure (SMILES): CC[C@@H]1C(=O)N(C)c2cnc(Nc3ccc(C(=O)NCCOCCOCCNc4cccc5c4C(=O)N(C4CCC(=O)NC4=O)C5=O)cc3OC)nc2N1C1CCCC1 (stereo partly drawn)
IC50 [34]: 4.48 nM

Structure (SMILES): CC1=C/C(=N/OC(=O)c2ccc(CNC(=O)CCc3cn(CCCCCCOCCOCCNC(=O)CC45CC6CC(CC(C6)C4)C5)nn3)cc2C)C(C)=CC1=O
IC50 [19]: 51.9 µM | inhibition [20]: 47% | IC50 [36]: 10.5 µM | IC50 [25]: 14 µM

Other lines, results leading:

half-life [1]: > 30 min | solubility [2]: > 60 µg/mL
Structure (SMILES): O=c1c2cc(F)ccc2n2c(=S)[nH]nc2n1CCc1ccccn1

IC50 [18]: 1360 nM | IC50 [19]: 14.2 µM | inhibition [20]: 49%
Structure (SMILES): CC1=C/C(=N/OC(=O)c2ccccc2C)C(C)=CC1=O

IC50 [27]: 6.3 µM | IC50 [28]: 242 µM | IC50 [29]: 1.6 mM
Structure (SMILES): O=C1C[C@@H](c2ccccc2)Oc2cc(O)c(O)c(O)c21

IC50 [27]: 9 µM | IC50 [28]: 314 µM | IC50 [29]: 0.04 mM
Structure (SMILES): O=c1cc(-c2ccccc2)oc2cc(O)c(O)c(O)c12 [BAICALEIN]

IC50 [33]: 3.61 µM
Structure (SMILES): O=C(O)[C@H]1O[C@@H](Oc2cc3oc(-c4ccccc4)cc(=O)c3c(O)c2O)[C@H](O)[C@@H](O)[C@@H]1O [BAICALIN]

IC50 [35]: 17.9 µM
Structure (SMILES): N#Cc1cccc(CN2C[C@@H]3C[C@H](C2)c2c(-c4ccc5ccccc5c4)ccc(=O)n2C3)c1

half-life [1]: 20.1 min | solubility [2]: > 60 µg/mL
Structure (SMILES): COc1cccc(CC(=O)NCCCn2c(=O)c3cc(F)ccc3n3c(=S)[nH]nc23)c1

IC50 [21]: 20 µM
Structure (SMILES): Cc1onc(-c2ccccc2)c1/C=C1\C(=O)Nc2ccccc21

IC50 [27]: 10.2 µM | IC50 [28]: 952 µM | IC50 [29]: 5.12 mM
Structure (SMILES): COc1cc(O)c2c(=O)cc(-c3ccccc3)oc2c1OC [Moslosooflavone]
